From patent US20250235486A1, “Method of Producing Insulin-Producing Cells” (Monash University, priority 2022, published 2025)

Columns and labels:
Assay type in all cases: cell-based
[1] = system: H3K27me3 or H3K9/14ac content at the promoters of INS-IGF2, NGN3 and PDX1 in human pancreatic ductal epithelial cells; assay: Quantitative PCR chromatin immunoprecipitation (q-PCR ChIP) after 2- and 7-day stimulation; conditions: 2-day stimulation (FIG. 12b)
Method: Approximately 5×10^6 cells were fixed in 1% formaldehyde for 10 minutes, with a further 10-minute incubation in 0.125M glycine to quench the cross-linking reaction. The fixed cell pellet was lysed following resuspension and homogenization in sodium dodecyl (lauryl) sulphate (SOS) lysis buffer (1% SOS, 10 mM EDTA, 50 mM Tris-HCl pH 8.1) with a protease inhibitor cocktail (Roche Diagnostics GmBH, Mannheim, Germany) included. Samples were incubated on ice for 5 minutes following which sonication was performed to shear chromatin between 200-600 bp. Sonicated chromatin was resuspended in ChIP Dilution Buffer (0.01% SOS, 1.1% Triton X-100, 1.2 mM EDTA, 16.7 mM Tris-HCl pH 8.0 and 167 mM NaCl). 20 μl of DynabeadsR Protein A (Invitrogen, Carlsbad, CA, USA) was added to each sample and pre-cleared. Overnight incubation at 4° C. with H3K27me3 or H3K9/14ac antibody was used for immunoprecipitation of chromatin, as previously described. Immunoprecipitates were collected by magnetic isolation and washed sequentially with low salt and high salt buffers. Immunoprecipitated DNA was then eluted from solution with 0.1 M NaHCO3 containing 1% SIDS. Protein-DNA cross-links were reversed by incubation of samples in Proteinase K (Sigma, St. Louis, MO, USA) for 2 hours at 62° C. DNA was purified using a Qiagen MinElute column (Qiagen Inc., Valencia, CA, USA). H3K27me3 or H3K9/14ac content at the promoters of the INS-IGF2, NGN3 and PDX1 genes were assessed by qPCR using primers designed from the integrative ENCODE resource.

[2] = system: H3K27me3 content at promoters in human exocrine cells; assay: Chromatin immunoprecipitation (anti-H3K27me3) qPCR in exocrine cells of a non-diabetic donor; conditions: GSK126 vs DMSO
Method: Chromatin immunoprecipitation assays in human exocrine cells were performed previously described (Rafehi H, et al. Vascular histone deacetylation by pharmacological HDAC inhibition. Genome Res 24, 1271-1284 (2014); Pirola L, et al. Genome-wide analysis distinguishes hyperglycemia regulated epigenetic signatures of primary vascular cells. Genome Res 21, 1601-1615 (2011)). Cells were fixed for 10 minutes with 1% formaldehyde and quenched for 10 mins with glycine (0.125 M) solution. Fixed cells were resuspended in sodium dodecyl (lauryl) sulfate (SDS) lysis buffer (1% SDS, 10 mM EDTA, 50 mM Tris-HCl pH 8.1) including a protease inhibitor cocktail (Roche Diagnostics GmBH, Mannheim, Germany) and homogenized followed by incubation on ice for 5 minutes. […] H3K27me3 content at the promoters of the INS, INS-IGF2, NGN3 and PDX1 genes were assessed by qPCR using primers designed from the integrative ENCODE resource (Zhang J, et al. An integrative ENCODE resource for cancer genomics. Nat Commun 11, 3696 (2020)).
Proteins were cross-linked to DNA and soluble chromatin fractionated by sonication. […] DNA was assessed by qPCR using amplimers specifically designed to detect human Ins chromatin domain genes (FIG. 5a). […]

[3] = system: marmoset exocrine (acinar and ductal) cells; assay: qRT-PCR gene expression in marmoset exocrine (acinar and ductal) cells; conditions: 48 hours: GSK126 10 μM, ursolic acid 5 μM
Method: (§1) Exocrine cells from a non-diabetic human and a marmoset were cultured and assayed in Miami/CMRL medium. The human exocrine cells were sourced from the Islet Transplant Unit of St Vincent's Institute for Medical Research. The marmoset exocrine cells were sourced from the Australian Regenerative Medicine Institute (ARMI), Monash University. Miami media is based on CMRL 1066 media (Connaught Medical Research Lab) supplemented with: Insulin, Transferrin & Selenium (ITS), human serum, Vitamin E, sodium pyruvate, zinc and HEPES. Pharmacological inhibition of EZH2 and gene expression analysis were performed as described in Example 1.

[4] = system: human exocrine (acinar and ductal) cells; assay: qRT-PCR gene expression in human exocrine (acinar and ductal) cells from a non-diabetic donor; conditions: 48 hours: GSK126 10 μM, CPI-1205 5 μM, ursolic acid 5 μM, GSK343 5 μM, EPZ-6438 5 μM
Method: as §1

[5] = system: Human pancreatic ductal epithelial cells; assay: Glucose stimulated insulin secretion assay (ELISA)
Method: 5×10^5 cells were seeded in 12-well plates and allowed to adhere for 24 hours. […] Next, cells were cultured in 28 mM (High) glucose Krebs Buffer solution and incubated for 1 hour to obtain the glucose stimulated insulin secretion. Supernatant was collected and Ultrasensitive Insulin ELISA (Mercodia) was used to determine the concentration of insulin according to manufacturer's instructions. Fold change of insulin secreted by cells were calculated by adjusting to cells stimulated with EZH2 inhibitors for insulin concentrations compared to control.

[6] = system: Human immortalised ductal cell line; assay: qRT-PCR gene expression in human immortalised ductal cell line; conditions: ursolic acid 1, 2.5 or 5 μM; GSK126 5, 10 or 20 μM
Method: Human immortalised ductal cell line (Catalog #: T0018001, Addexbio) was cultured and assayed in Keratinocyte SFM (serum-free medium) (Catalog number 17005042, ThermoFisher Scientific, USA). Pharmacological inhibition of EZH2 and gene expression analysis were performed as described in Example 1.

[7] = system: Human pancreatic ductal epithelial cells; assay: qRT-PCR after 2- and 7-day EZH2 inhibitor stimulation of human pancreatic ductal epithelial cells; conditions: GSK-126 10 μM
Method: Human pancreatic ductal epithelial cells were purchased from AddexBio and cultured according to the recommended protocols. Cells were cultured in complete Keratinocyte Serum-Free Media (supplemented with human recombinant EGF, Bovine Pituitary Extract and Antibiotic-Antimycotic [Gibco]. All cell cultures were grown and maintained in a 37° C., 5% C02 environment using a tissue culture incubator. Once cells reached 70-80% confluency, passaging was performed using 0.05% Trypsin EDTA (Sigma). […] Vehicle control was DMSO. Cells were treated over 2 main timepoints, with harvests occurring following 2, and 7 days. For the 2-day time point, cells were seeded and left to adhere in plates for 24 hours. Treatment was initiated with the first dose made up in complete K-SFM. The second dose was delivered 24 hours later following a media change. For the longer period of 7 days, cells were initially seeded in 10 cm plates, with doses delivered on alternate days following the initial period of 24 hours. […] Ct values of experimental genes were normalized to housekeeping gene [MUT]. Fold change of mRNA abundance was calculated by normalizing drug treated values to vehicular controls. […] RNA was isolated using the RNeasy Kit according to the manufacturer's directions. Following measurement of RNA concentration using a QIAxpert System, 1 μg of RNA was used for cDNA synthesis by a high-capacity cDNA Reverse Transcription Kit (Applied Biosystems). The resulting cDNA reaction mix was diluted 1:6 to make up the final template cDNA used subsequently. […] Ct values of experimental genes were normalized to housekeeping gene [MUT]. Fold change of mRNA abundance was calculated by normalizing drug treated values to vehicular controls.

[8] = 2 days, EPZ6438 1 μM, Triptolide 20 nM
[9] = 7 days, EPZ6438 1 μM, Triptolide 20 nM

CC[C@H](C)n1cc(C)c2c(C(=O)NCc3c(C)cc(C)[nH]c3=O)cc(-c3ccc(N4CCNCC4)nc3)cc21 [GSK126, N-[(1,2-Dihydro-4,6-dimethyl-2-oxo-3-pyridinyl)methyl]-3-methyl-1-[(1S)-1-methylpropyl]-6-[6-(1-piperazinyl)-3-pyridinyl]-1H-indole-4-carboxamide]
H3K27me3 content of chromatin associated with NGN3 promoter [1]: significantly reduced
H3K27me3 content of chromatin associated with PDX1 promoter [1]: significantly reduced
H3K27me3 content of chromatin associated with the INS promoter domain [1]: significantly reduced
H3K27me3 content at the Ins and Igf2AS promoter (R1-R3) regions ([2]; non-diabetic donor (2)): Significant reduction
H3K27me3 content on the Ngn3 promoter R1 ([2]; non-diabetic exocrine cells): marginally affected
Insulin mRNA expression [3]: stimulated expression
Pdx1 mRNA expression [3]: stimulated expression
mRNA expression of Insulin, Pdx1 and Ngn3 [4]: stimulated expression of one, two or all of Insulin, Pdx1 and Ngn3
insulin concentration after incubation in high-glucose media (28 mM glucose, 1 hour) ([5]; 2-day stimulation (FIG. 13d), GSK126 10 μM, EPZ6438 1 μM, Triptolide 20 nM, not observed in DMSO control): significant elevations
Release of insulin (glucose stimulated) ([5]; 7 days stimulation (FIG. 13e)): maintained
Insulin mRNA expression [6]: stimulated expression
Ngn3 mRNA expression [6]: stimulated expression
Pdx1 mRNA expression [6]: stimulated expression
MAFA mRNA levels ([7]; 2-day point, Triptolide 20 nM): increased in a statistically significant manner
Alpha-amylase (AMY2A) transcripts ([7]; 2 days): increased significantly
CK19 expression [7, 8]: statistically significant decreases
NGN3 mRNA levels [7, 8]: significantly elevated
insulin transcripts, mature mRNA (INS) [7, 8]: elevations
insulin transcripts, unprocessed heterogenous nuclear form (INS hnRNA) [7, 8]: elevations
NGN3 mRNA levels [7, 9]: Further increases
insulin transcripts, mature mRNA (INS) [7, 9]: even further increases
insulin transcripts, unprocessed heterogenous nuclear form (INS hnRNA) [7, 9]: even further increases
